Experimental data published in US9315847B2, “Automated transient image cytometry” (priority 2009, dated 2016).

Test system: NRVMs
Assay: Toxicity of the nuclear label to NRVMs during dye loading
Type: cell-based, rat
Conditions: 200 ng/ml in loading solution, 25 minutes
Experimental: Sensitivity to intracellular calcium kinetics is a desirable goal for automated calcium transient image cytometry because it is desirable to distinguish healthy contractile ESCMs from background non-contractile stem cells. […] The cells were maintained 48 to 72 hrs prior to scanning. On the day of scanning, the cells were incubated with a 3 μM solution of the acetyoxymethylester form of an intracellular calcium indicator (either Fluo-4 AM or Fluo-3 AM) in the base media for 25 minutes. The plasma membrane permeable to the acetoxymethylester forms of Fluo-3 and Fluo-4, which are modified intracellularly by esterases to an impermeable form. The loading solution was also supplemented with 200 ng/ml Hoechst 33342 to label DNA within the nuclei. This concentration of Hoechst provides adequate label of the nuclei and was non-toxic under these conditions. Thus, the labeling procedure introduced a green-fluorescence channel fluorescent calcium indicator into the cytoplasm of the NRVMs (Fluo-4) and a blue-fluorescence channel nuclear stain (Hoechst). The nuclear channel was used for autofocus at each well; additionally, images obtained of the nuclei provided information regarding cellular position that was helpful in assigning boundaries between cells in the segmentation procedure applied to the green-channel images. […]

CCOc1ccc(-c2nc3ccc(-c4nc5ccc(N6CCN(C)CC6)cc5[nH]4)cc3[nH]2)cc1 [Hoechst 33342]
toxicity of the nuclear label under loading conditions: non-toxic
